Experimental data reported in publication PMC12405493, “Selective ubiquitination of drug-like small molecules by the ubiquitin ligase HUWE1” (Nature Communications, 2025).

Experiments:
[1] = target: T1, HUWE1^HECT (Homo sapiens, UniProt Q7Z6Z7); experiment: HUWE1^HECT multi-turnover ubiquitination reactions (fluorescent Ub tracer, SDS-PAGE); format: biochemical; conditions: E2 UBE2L3, varying concentrations
T1 construct: the isolated HECT domain of HUWE1 (HUWE1^HECT); made in house
T1 sequence (Q7Z6Z7 4038-4374 limits assumed): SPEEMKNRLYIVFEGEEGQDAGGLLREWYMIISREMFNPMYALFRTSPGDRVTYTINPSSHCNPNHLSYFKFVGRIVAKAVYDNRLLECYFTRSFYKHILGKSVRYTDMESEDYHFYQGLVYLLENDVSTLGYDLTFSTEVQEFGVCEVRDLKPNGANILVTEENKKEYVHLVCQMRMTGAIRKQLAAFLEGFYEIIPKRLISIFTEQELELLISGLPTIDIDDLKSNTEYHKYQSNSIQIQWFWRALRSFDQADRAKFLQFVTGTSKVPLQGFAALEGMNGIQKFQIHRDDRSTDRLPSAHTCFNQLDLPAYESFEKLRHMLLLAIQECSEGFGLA
Protocol: (§1) HUWE1^HECT multi-turnover ubiquitination reactions were performed for 30 minutes (unless stated otherwise) with 200 nM UBA1, 5 μM UBE2L3 or UBE2D3 (as specified), 1 μM HUWE1^HECT and 30 μM Ub in 25 mM HEPES (pH 7.5), 100 mM NaCl, 3 mM MgCl2, and 0.5 mM TCEP. HUWE1^FL multi-turnover ubiquitination reactions included 50 nM UBA1, 2.5 μM UBE2L3, 0.05 μM HUWE1^FL, 0.5 μM MCL1 (or 0.5 μM H2B or 1 μM FOXP3) and 20 μM Ub in 20 mM HEPES (pH 7.5), 100 mM NaCl, 3 mM MgCl2, and 0.5 mM TCEP. All multi-turnover reactions were started by the addition of 1 mM ATP, incubated at 30 °C, quenched with SDS-loading dye. If not stated otherwise, HUWE1^FLautoubiquitination reactions were incubated for 20 minutes. Substrate ubiquitination reactions with MCL1 or H2B were incubated for 10 and 20 min, respectively; those with FOXP3 for 30 min. Those reactions that were monitored by fluorescence contained a fluorescent Ub tracer (IRDye 800CW maleimide; LI-COR)[55] and were monitored using an Odyssey CLx scanner (LI-COR), followed by Coomassie staining. In the fluorescence images, only those marker bands are labeled (in kDa) that are visible by fluorescence; all marker bands are labeled in the Coomassie-stained images. Statistical analyses were performed with Prism 9 v.9.3.1 (GraphPad).

[2] = target: T2, UBA1 (E1) / UBE2L3 (E2) (Homo sapiens, UniProt P22314+P68036); experiment: E1-driven Ub transfer to UBE2L3 (E3-free reaction); format: biochemical; conditions: Supplementary Fig. 1f, g
T2 construct: made in house
Protocol: E3-free multi-turnover ubiquitination reactions to monitor E1 and E2 activities contained 1 μM UBA1, 5 μM UBE2L3, 100 μM Ub, 2 mM ATP and 10 mM MgCl2 in 25 mM HEPES (pH 7.4), and 0.2 mM TCEP. Reactions were incubated at 30 °C for 10 min (or otherwise, as specified) and quenched with 50 mM EDTA, followed by the addition of SDS-loading dye. Single-turnover E2~Ub discharge assays were performed similarly to previous studies. In short, 1 μM UBA1, 5 μM UBE2L3, and 100 μM Ub were pre-incubated with 2 mM ATP and 10 mM MgCl2 in 25 mM HEPES (pH 7.4) at 30 °C for 30 min, diluted 4-fold, and quenched with 50 mM EDTA. Thereafter, 1.2 μM of the UBE2L3~Ub product was incubated with 5 μM HUWE1^HECT at 30 °C for 1 min.

[3] = target: T3, vinylthioether-linked HUWE1^HECT-Ub complex (Homo sapiens, UniProt Q7Z6Z7); experiment: Differential scanning fluorimetry (DSF) with HUWE1^HECT~Ub proxy; format: binding; conditions: 10 μM protein
T3 construct: The preparation of the vinylthioether-linked HUWE1^HECT-Ub complex was also previously described; made in house; host or cells: bacteria (components)
Protocol: DSF was performed in 25 mM HEPES (pH 7.5), 100 mM NaCl, 1 mM TCEP and 0.4% (v/v) DMSO, using a CFX96 Touch Real-Time PCR Detection System (BioRad). 10 μM HUWE1^HECT and HUWE1^HECT-Ub, respectively, at a sample volume of 25 μL were denatured by a linear 25–95 °C gradient over 120 min in a presence of 10 x SYPRO Orange (Invitrogen). Tm-values were determined as the first derivative of the fluorescence curves, using CFX Maestro™ v.1.1 (Bio-Rad). Melting curves were plotted as normalized -d(fluorescence)/dt with Prism v.9.3.1 (GraphPad).

[4] = tested on: HECT domains of E6AP (UBE3A), HACE1, NEDD4, and UBE3C; experiment: Analytical SEC of compound ubiquitination by other HECT domains; format: biochemical, human
[5] = target: T4, HUWE1^FL (Homo sapiens, UniProt Q7Z6Z7); experiment: HUWE1^FL multi-turnover ubiquitination reactions without protein substrate (autoubiquitination, free Ub chains); format: biochemical; conditions: without protein substrate; varying concentrations
T4 construct: made in house; host or cells: HEK293T (transient transfection, anti-Flag purification, SEC)
Protocol: as §1

[6] = target: T5, HUWE1^FL (substrate MCL1) (Homo sapiens, UniProt Q7Z6Z7); experiment: HUWE1^FL-driven MCL1 ubiquitination reactions; format: biochemical; conditions: varying concentrations
T5 construct: made in house; host or cells: HEK293T (transient transfection, anti-Flag purification, SEC)
Protocol: as §1

[7] = tested on: HUWE1 substrates, such as MCL1; parameters: method as in PMID 25253726; conditions: MCL1 upon DNA damage induction; cited from earlier work
[8] = parameters: method as in PMID 25253726; conditions: cited from earlier work

T2 sequence (P22314 whole entry): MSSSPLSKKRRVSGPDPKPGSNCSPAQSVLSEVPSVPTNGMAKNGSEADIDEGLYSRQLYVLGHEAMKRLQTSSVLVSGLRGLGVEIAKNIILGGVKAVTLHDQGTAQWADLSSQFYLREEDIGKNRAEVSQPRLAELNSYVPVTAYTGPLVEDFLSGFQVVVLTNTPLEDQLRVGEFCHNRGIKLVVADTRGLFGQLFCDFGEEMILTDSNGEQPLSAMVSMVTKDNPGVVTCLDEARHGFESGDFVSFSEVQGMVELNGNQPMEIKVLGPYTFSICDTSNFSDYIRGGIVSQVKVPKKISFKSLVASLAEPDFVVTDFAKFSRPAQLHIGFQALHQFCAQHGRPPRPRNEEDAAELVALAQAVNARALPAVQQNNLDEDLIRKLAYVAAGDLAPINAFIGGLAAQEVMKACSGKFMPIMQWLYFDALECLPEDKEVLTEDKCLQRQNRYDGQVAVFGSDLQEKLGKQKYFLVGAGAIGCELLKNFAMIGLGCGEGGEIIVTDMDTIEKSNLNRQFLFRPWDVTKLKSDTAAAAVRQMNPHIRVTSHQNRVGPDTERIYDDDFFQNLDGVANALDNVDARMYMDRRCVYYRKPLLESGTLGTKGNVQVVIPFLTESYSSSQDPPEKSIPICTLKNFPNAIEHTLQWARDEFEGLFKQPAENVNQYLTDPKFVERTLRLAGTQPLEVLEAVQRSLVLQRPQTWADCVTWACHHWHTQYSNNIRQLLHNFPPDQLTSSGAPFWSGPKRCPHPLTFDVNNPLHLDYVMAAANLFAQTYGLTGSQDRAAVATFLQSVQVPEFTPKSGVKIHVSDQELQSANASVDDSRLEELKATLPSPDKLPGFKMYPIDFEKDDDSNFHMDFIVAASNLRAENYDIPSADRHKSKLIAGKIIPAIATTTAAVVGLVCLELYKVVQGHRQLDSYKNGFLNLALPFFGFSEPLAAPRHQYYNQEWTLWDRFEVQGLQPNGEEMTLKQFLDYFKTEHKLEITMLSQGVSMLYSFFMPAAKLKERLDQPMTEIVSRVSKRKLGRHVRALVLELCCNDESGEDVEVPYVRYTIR
T2 sequence (P68036 whole entry): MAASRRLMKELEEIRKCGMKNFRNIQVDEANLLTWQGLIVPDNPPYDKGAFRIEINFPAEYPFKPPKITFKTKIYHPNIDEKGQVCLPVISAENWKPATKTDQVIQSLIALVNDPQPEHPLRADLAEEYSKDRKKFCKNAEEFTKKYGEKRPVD

SMILES: Cc1c(C(=O)Nc2ccc(CN)cc2)ncnc1N1CCC(C#N)(c2ccccc2)CC1 [BI8622]
- Inhibition of HUWE1^HECT-driven ubiquitination [1]: inhibit ubiquitination dose-dependently in the low-micromolar concentration range
- Ub transfer from the E1 to the E2 [2]: nor do they perturb the preceding Ub transfer from the E1 to the E2
- Interaction with HUWE1^HECT-Ub by DSF [3]: no interactions between HUWE1^HECT-Ub and the inhibitors could be detected
- Compound ubiquitination by other HECT domains [4]: certain compound-directed activities were detected for all tested HECT domains
- Inhibition of HUWE1^FL protein ubiquitination activity (E3 autoubiquitination, free Ub chain formation) [5]: inhibit the protein ubiquitination activity of the ligase in a dose-dependent manner
- Inhibition of HUWE1^FL-driven MCL1 ubiquitination [6]: inhibit the protein ubiquitination activity of the ligase in a dose-dependent manner
- Stabilization of HUWE1 substrates [7]: stabilize individual HUWE1 substrates under certain conditions, such as MCL1 upon DNA damage induction
- Pharmacokinetic properties [8]: do not allow for in vivo applications

SMILES: NCc1cccc(CNc2ncnc3c(N4CCN(Cc5ccccc5)CC4)ncnc23)c1 [BI8626]
- Inhibition of HUWE1^HECT-driven ubiquitination [1]: inhibit ubiquitination dose-dependently in the low-micromolar concentration range
- Ub transfer from the E1 to the E2 [2]: nor do they perturb the preceding Ub transfer from the E1 to the E2
- Interaction with HUWE1^HECT-Ub by DSF [3]: no interactions between HUWE1^HECT-Ub and the inhibitors could be detected
- Compound ubiquitination by other HECT domains [4]: certain compound-directed activities were detected for all tested HECT domains
- Inhibition of HUWE1^FL protein ubiquitination activity (E3 autoubiquitination, free Ub chain formation) [5]: inhibit the protein ubiquitination activity of the ligase in a dose-dependent manner
- Inhibition of HUWE1^FL-driven MCL1 ubiquitination [6]: inhibit the protein ubiquitination activity of the ligase in a dose-dependent manner
- Stabilization of HUWE1 substrates [7]: stabilize individual HUWE1 substrates under certain conditions, such as MCL1 upon DNA damage induction
- Pharmacokinetic properties [8]: do not allow for in vivo applications
